Source: ChEMBL document CHEMBL4004781, “Synthesis, biological evaluation, docking study and ulcerogenicity profiling of some novel quinoline-2-carboxamides as dual COXs/LOX inhibitors endowed with anti-inflammatory activity” (Eur J Med Chem, 2017)

Key:
[1] = Inhibition of soybean 15-LOX assessed as decrease in leukotriene formation by enzyme immunoassay; parameters: species or system Glycine max
[2] = tested on: Rattus norvegicus; test: Ulcerogenic effect in albino rat assessed as ulcer index at 50 umol/kg, po qd administered for 3 days measured 1 hr post last dose; type: toxicity, organism-based; conditions: in vivo
[3] = tested on: Rattus norvegicus; test: Antiinflammatory activity in albino rat assessed as inhibition of carrageenan-induced paw edema at 28 umol/kg, ip administered 1 hr post carrageenan challenge measured at 3 hrs post compound dosing relative to control; type: functional
[4] = tested on: Rattus norvegicus; test: Antiinflammatory activity in albino rat assessed as inhibition of carrageenan-induced paw edema at 28 umol/kg, ip administered 1 hr post carrageenan challenge measured at 1 hr post compound dosing relative to control; type: functional
[5] = tested on: Rattus norvegicus; test: Ulcerogenic effect in albino rat assessed as loss of demarcation between surface mucus cells at 50 umol/kg, po qd administered for 3 days measured 1 hr post last dose by scanning electron microscopic method; type: toxicity, organism-based; conditions: in vivo
[6] = tested on: Rattus norvegicus; test: Antiinflammatory activity in albino rat assessed as inhibition of carrageenan-induced paw edema at 28 umol/kg, ip administered 1 hr post carrageenan challenge measured at 5 hrs post compound dosing relative to control; type: functional
[7] = tested on: Rattus norvegicus; test: Ulcerogenic effect in albino rat assessed as effect on architecture of gastric mucosa at 50 umol/kg, po qd administered for 3 days measured 1 hr post last dose by hematoxylin/eosin staining-based light microscopic method; type: toxicity, organism-based; conditions: in vivo
[8] = tested on: Rattus norvegicus; test: Ulcerogenic effect in albino rat assessed as effect on architecture of gastric mucosal surface at 50 umol/kg, po qd administered for 3 days measured 1 hr post last dose by scanning electron microscopic method; type: toxicity, organism-based; conditions: in vivo
[9] = target: T1, Prostaglandin G/H synthase 2 (Homo sapiens, UniProt P35354); test: Inhibition of recombinant human COX2 using arachidonic acid as substrate assessed as decrease in PGF2 production preincubated for 15 mins followed by substrate addition measured after 2 mins by enzyme immunoassay
T1 sequence (P35354 whole entry): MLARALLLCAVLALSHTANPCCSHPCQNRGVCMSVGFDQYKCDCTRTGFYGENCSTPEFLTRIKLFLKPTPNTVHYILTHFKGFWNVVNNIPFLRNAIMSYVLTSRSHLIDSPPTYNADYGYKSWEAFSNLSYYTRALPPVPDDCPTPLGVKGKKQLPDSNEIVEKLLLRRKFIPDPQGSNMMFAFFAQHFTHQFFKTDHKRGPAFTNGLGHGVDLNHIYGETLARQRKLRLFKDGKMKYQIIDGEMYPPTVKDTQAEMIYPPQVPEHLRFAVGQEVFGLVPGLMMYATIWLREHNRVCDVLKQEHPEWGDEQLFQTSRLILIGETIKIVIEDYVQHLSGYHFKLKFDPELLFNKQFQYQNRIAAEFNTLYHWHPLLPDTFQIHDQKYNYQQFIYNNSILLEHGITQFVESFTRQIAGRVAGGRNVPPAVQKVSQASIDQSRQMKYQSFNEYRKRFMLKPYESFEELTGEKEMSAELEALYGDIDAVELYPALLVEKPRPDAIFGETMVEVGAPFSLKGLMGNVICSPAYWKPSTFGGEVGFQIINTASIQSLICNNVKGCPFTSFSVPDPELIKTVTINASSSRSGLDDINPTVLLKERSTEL

[10] = Selectivity ratio of IC50 for ovine COX1 to IC50 for recombinant human COX2
[11] = tested on: Rattus norvegicus; test: Ulcerogenic effect in albino rat assessed as congestion of blood vessels at 50 umol/kg, po qd administered for 3 days measured 1 hr post last dose by hematoxylin/eosin staining-based light microscopic method; type: toxicity, organism-based; conditions: in vivo
[12] = target: T2, Prostaglandin G/H synthase 1 (Ovis aries, UniProt P05979); test: Inhibition of ovine COX1 using arachidonic acid as substrate assessed as decrease in PGF2 production preincubated for 15 mins followed by substrate addition measured after 2 mins by enzyme immunoassay
T2 sequence (P05979 whole entry): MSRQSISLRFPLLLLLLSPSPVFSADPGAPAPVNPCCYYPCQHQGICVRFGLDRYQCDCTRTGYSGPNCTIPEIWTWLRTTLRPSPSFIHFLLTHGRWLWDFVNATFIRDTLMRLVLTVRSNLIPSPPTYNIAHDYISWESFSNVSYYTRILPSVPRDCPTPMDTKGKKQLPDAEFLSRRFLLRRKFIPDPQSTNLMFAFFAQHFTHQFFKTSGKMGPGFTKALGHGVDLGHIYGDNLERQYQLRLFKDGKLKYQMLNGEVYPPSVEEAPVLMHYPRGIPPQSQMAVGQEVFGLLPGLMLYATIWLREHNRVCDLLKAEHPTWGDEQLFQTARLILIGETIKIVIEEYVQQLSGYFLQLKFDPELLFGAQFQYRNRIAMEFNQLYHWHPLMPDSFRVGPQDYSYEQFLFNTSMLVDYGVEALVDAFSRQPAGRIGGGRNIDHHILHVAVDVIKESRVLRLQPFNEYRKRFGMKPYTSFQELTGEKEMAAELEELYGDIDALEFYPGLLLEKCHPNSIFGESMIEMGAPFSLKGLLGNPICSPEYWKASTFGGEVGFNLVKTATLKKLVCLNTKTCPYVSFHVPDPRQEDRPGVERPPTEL

[13] = tested on: Rattus norvegicus; test: Ulcerogenic effect in albino rat assessed as lymphocytic infiltration at 50 umol/kg, po qd administered for 3 days measured 1 hr post last dose by hematoxylin/eosin staining-based light microscopic method; type: toxicity, organism-based; conditions: in vivo
[14] = Inhibition of soybean 15-LOX; parameters: species or system Glycine max
[15] = tested on: Rattus norvegicus; test: Ulcerogenic effect in albino rat assessed as exfoliation of superficial epithelial cells at 50 umol/kg, po qd administered for 3 days measured 1 hr post last dose by hematoxylin/eosin staining-based light microscopic method; type: toxicity, organism-based; conditions: in vivo
[16] = tested on: Rattus norvegicus; test: Ulcerogenic effect in albino rat assessed as maceration of gastric mucosa at 50 umol/kg, po qd administered for 3 days measured 1 hr post last dose by hematoxylin/eosin staining-based light microscopic method; type: toxicity, organism-based; conditions: in vivo
[17] = tested on: Rattus norvegicus; test: Ulcerogenic effect in albino rat assessed as induction of necrosis in gastric mucosal cells at 50 umol/kg, po qd administered for 3 days measured 1 hr post last dose by hematoxylin/eosin staining-based light microscopic method; type: toxicity, organism-based; conditions: in vivo
[18] = tested on: Rattus norvegicus; test: Ulcerogenic effect in albino rat assessed as submucosal edema at 50 umol/kg, po qd administered for 3 days measured 1 hr post last dose by hematoxylin/eosin staining-based light microscopic method; type: toxicity, organism-based; conditions: in vivo
[19] = tested on: Rattus norvegicus; test: Ulcerogenic effect in albino rat assessed as complete shedding of surface mucous cells leaving underlying gastric pit walls and openings with honeycomb shape at 50 umol/kg, po qd administered for 3 days measured 1 hr post last dose by scanning electron microscopic method; type: toxicity, organism-based; conditions: in vivo

IC50 [1] | IC50 [9] | IC50 [12] | SMILES | inhibition in vivo at 28 µmol/kg [3] | inhibition in vivo at 28 µmol/kg [4] | inhibition in vivo at 28 µmol/kg [6] | Ratio IC50 [10] | other results
6.18 µM | 1.21 µM | 7.9 µM | Cc1c(C(=O)NCc2nc3ccccc3[nH]2)nc2ccc(Cl)cc2c1O | 50.1% | 45.2% | 59.4% | 6.52 | UI [2]: 2.66; Activity [5]: Toxic; Activity [7]: Non-Toxic; Activity [8]: Non-Toxic; Activity [11]: Toxic
5.91 µM | 1.13 µM | 8.6 µM | Cc1c(C(=O)N2CCN(c3ccccc3)CC2)nc2ccc(Cl)cc2c1O | 61% | 49.5% | 65% | 7.61 | UI [2]: 2.5; Activity [5]: Toxic; Activity [7]: Non-Toxic; Activity [8]: Non-Toxic; Activity [13]: Toxic
 | 3.54 µM | 13.1 µM | Cc1c(C(=O)NC2CCCN(Cc3ccccc3)C2)nc2ccc(Cl)cc2c1O (stereo unspecified) | 35.9% | 31.4% | 37.8% | 3.7 | 
7.14 µM | 1.91 µM | 9.6 µM | CCOC(=O)C(Cc1ccccc1)NC(=O)c1nc2ccc(Cl)cc2c(O)c1C (stereo unspecified) | 47.3% | 40.5% | 49% | 5.02 | 
9.87 µM | 2.54 µM | 11.4 µM | Cc1c(C(=O)NCCc2ccccc2)nc2ccc(Cl)cc2c1O | 40.9% | 35.8% | 43.4% | 4.48 | 
8.43 µM | 2.81 µM | 10.7 µM | Cc1c(C(=O)N2CCNCC2)nc2ccc(Cl)cc2c1O | 37.5% | 31.1% | 38% | 3.8 | 
6.54 µM | 1.41 µM | 7.8 µM | Cc1c(C(=O)NC2CCCCC2)nc2ccc(Cl)cc2c1O | 50.1% | 43.5% | 52% | 5.53 | 
 |  |  | CC(C)(C)Nc1c(-c2cc3ccccc3nc2Cl)nc2sccn12 |  |  |  |  | IC50 [14]: 11.5 µM
 | 1.91 µM | 9.8 µM | Cc1c(C(=O)NCCc2ccc(N3CCCC3C)cc2)nc2ccc(Cl)cc2c1O (stereo unspecified) | 48% | 41% | 49.7% | 5.1 | 
 | 1.67 µM | 8.3 µM | Cc1c(C(=O)NCCc2ccc(N(C)C)cc2)nc2ccc(Cl)cc2c1O | 46.9% | 39.1% | 48.6% | 4.97 | 
 | 1.74 µM | 8.3 µM | Cc1c(C(=O)N(C)c2ccccc2)nc2ccc(Cl)cc2c1O | 45.6% | 38.9% | 47% | 4.77 | 
 |  |  | COc1ccc2c(c1)c(CC(=O)O)c(C)n2C(=O)c1ccc(Cl)cc1 [INDOMETHACIN] |  |  |  |  | UI [2]: 17.23; Activity [15]: Toxic; Activity [16]: Toxic; Activity [17]: Toxic; Activity [18]: Toxic; Activity [13]: Toxic; Activity [19]: Toxic; Activity [11]: Toxic
5.64 µM |  |  | Cc1ccc(Cl)c(Nc2ccccc2C(=O)O)c1Cl [MECLOFENAMATE SODIUM] |  |  |  |  | 
 | 2.78 µM | 11.4 µM | Cc1c(C(=O)NC(CO)Cc2ccccc2)nc2ccc(Cl)cc2c1O (stereo unspecified) | 39.5% | 34.2% | 41.3% | 4.1 | 
6.74 µM | 1.69 µM | 7.5 µM | Cc1c(C(=O)NCCc2ccc(N3CCCC3)cc2)nc2ccc(Cl)cc2c1O | 48% | 41% | 49.9% | 4.43 | 
10.4 µM | 3.14 µM | 12.4 µM | Cc1c(C(=O)N2CCCCC2)nc2ccc(Cl)cc2c1O | 35.4% | 30.1% | 36.8% | 3.94 | 
 |  |  | Cc1ccc(-c2cc(C(F)(F)F)nn2-c2ccc(S(N)(=O)=O)cc2)cc1 [CELECOXIB] | 68.4% | 57.1% | 71.2% |  | 
7.32 µM | 2.11 µM | 10.4 µM | Cc1c(C(=O)NCCc2ccc(N3CCCCC3)cc2)nc2ccc(Cl)cc2c1O | 46.9% | 39.8% | 48.2% | 4.92 | 
